Reference: ChEMBL document CHEMBL6115036, “Exploration of membrane-active cephalosporin derivatives as potent antibacterial agents against Staphylococcus aureus biofilms and persisters” (Eur J Med Chem, 2025)
≈ marks a conversion by molar mass, not a printed value. Calls of active or inactive are those of the source. The rule behind the calls is not given here.

Legend:
Staphylococcus aureus [1] = assay: Induction of resistance development in norfloxacin-resistant Staphylococcus aureus assessed as fold increase in MIC at sub-MIC measured after 20 passages relative to control; format: functional
Staphylococcus aureus [2] = assay: Antibacterial activity against rifampicin-induced persistant Staphylococcus aureus assessed as decrease in CFU at 100 times MIC measured for 10 hrs; format: functional, organism-based
[3] = Cytotoxicity against human HeLa cells incubated for 24 hrs by CCK8 assay; format: toxicity, cell-based
Enterococcus faecalis = assay: Antimicrobial activity against Enterococcus faecalis incubated for 16 to 18 hrs by broth dilution assay; format: functional; details: time 16-18 hrs
[4] = Cytotoxicity against HUVEC cells incubated for 24 hrs by CCK8 assay; format: toxicity, cell-based; details: human
Staphylococcus aureus [5] = assay: Antibacterial activity against Staphylococcus aureus assessed as fold increase in MIC in presence of 50% sheep plasma; format: functional
[6] = system: Stenotrophomonas maltophilia; assay: Antimicrobial activity against Stenotrophomonas maltophilia incubated for 16 to 18 hrs by broth dilution assay; format: functional; details: time 16-18 hrs
Staphylococcus aureus [7] = assay: Induction of intracellular ROS accumulation in Staphylococcus aureus incubated overnight by DCFH-DA dye based analysis; format: functional, organism-based
Staphylococcus aureus [8] = assay: Antibacterial activity against Staphylococcus aureus assessed as fold increase in MIC in presence of 50% FBS; format: functional
Staphylococcus aureus [9] = assay: Antibacterial activity against Staphylococcus aureus assessed as effect on quiescent cells at 100 to 200 times MIC incubated for 24 hrs; format: functional, organism-based

Compound: O=C(O)c1cn(C2CC2)c2cc(N3CCNCC3)c(F)cc2c1=O [CIPROFLOXACIN]
- fold change (FC) (Staphylococcus aureus [1]): 64
- Activity (Staphylococcus aureus [2]): inactive

Compound: C[C@H]1COc2c(N3CCN(C)CC3)c(F)cc3c(=O)c(C(=O)O)cn1c23 [LEVOFLOXACIN ANHYDROUS]
- fold change (FC) (Staphylococcus aureus [1]): 16

Compound: CC[C@H](C)[C@H](NC(=O)CN)C(=O)NCC(=O)N[C@@H](C)C(=O)N[C@H](C(=O)N[C@@H](CC(C)C)C(=O)N[C@@H](CCCCN)C(=O)N[C@H](C(=O)N[C@@H](CC(C)C)C(=O)N[C@H](C(=O)N[C@H](C(=O)NCC(=O)N[C@@H](CC(C)C)C(=O)N1CCC[C@H]1C(=O)N[C@@H](C)C(=O)N[C@@H](CC(C)C)C(=O)N[C@H](C(=O)N[C@@H](CO)C(=O)N[C@@H](Cc1c[nH]c2ccccc12)C(=O)N[C@H](C(=O)N[C@@H](CCCCN)C(=O)N[C@@H](CCCNC(=N)N)C(=O)N[C@@H](CCCCN)C(=O)N[C@@H](CCCNC(=N)N)C(=O)N[C@@H](CCC(N)=O)C(=O)N[C@@H](CCC(N)=O)C(N)=O)[C@@H](C)CC)[C@@H](C)CC)[C@@H](C)O)[C@@H](C)O)C(C)C)C(C)C [MELITTIN]
- CC50 at 24 h [3]: 3.9 µg/mL (≈ 1.37 µM)
- MIC (Enterococcus faecalis): 2 µg/mL (≈ 0.703 µM)
- CC50 at 24 h [4]: 3.8 µg/mL (≈ 1.33 µM)
- fold change (FC) (Staphylococcus aureus [5]): >32
- MIC [6]: 8 µg/mL (≈ 2.81 µM)
- Activity (Staphylococcus aureus [7]): Dose-dependent-effect
- fold change (FC) (Staphylococcus aureus [8]): >32

Compound: CC(=O)NC[C@H]1CN(c2ccc(N3CCOCC3)c(F)c2)C(=O)O1 [LINEZOLID]
- fold change (FC) (Staphylococcus aureus [1]): 4

Compound: CO/N=C(\C(=O)N[C@@H]1C(=O)N2C(C(=O)O)=C(COC(C)=O)CS[C@H]12)c1csc(N)n1
- Activity (Staphylococcus aureus [2]): inactive
- Activity (Staphylococcus aureus [9]): inactive
